In this experiment the test system is 885512-296-R-J2-PDC complex spheroid growth, % test/control. As to the kind of experiment: Anticancer human tumor 885512-296-R-J2-PDC patient-derived breast carcinoma cell line growth inhibition [AhR]. The conditions noted are these: for viability, T/C: stronger effect = lower value; for IC50: curve of compound. The source says: Multicellular complex tumor spheroid response to aryl hydrocarbon receptor antagonists in combination with a variety of drugs and investigational agents in selected tumor cell lines
The current study was undertaken to assess response to aryl hydrocarbon receptor antagonists in combination with standard-of-care drugs and investigational agents in solid tumor complex spheroid models. Complex spheroids include a stromal component modeled by human endothelial cells (HUVEC) and fibroblasts modeled by human mesenchymal stem cells (MSCs). The concentration ranges selected for each drug and investigational agent were based upon clinically achievable concentrations if the clinical Cmax of the agent was known.
Compounds. The drugs and investigational agents: BAY 2416964 (NSC825713), GNF351 (NSC835774), CH-223191 (NSC835775), CPI-455 (NSC825282), aza-TdCyd (NSC777586), decitabine (NSC127716), belinostat (NSC758774), entinostat (NSC756642), pevonedistat (NSC761192), tazemetostat (NSC777109), talazoparib (NSC765396), olaparib (NSC753686), selinexor (NSC780203), nedisertib (M3814, NSC802822), bortezomib (NSC756655), venetoclax (NSC766270), doxorubicin (NSC123127), elimusertib (BAY189344, NSC800525), ceralasertib (AZD6738, NSC777638), TAK-243 (NSC785004), alisertib (NSC759677), etoposide (NSC141540), topotecan (NSC609699), eribulin (NSC707389), gemcitabine (NSC613327), carboplatin (NSC241240), cisplatin (NSC119875), and SN-38 (NSC673596) were obtained from the National Cancer Institute (NCI) Developmental Therapeutics Program Chemical Repository (32). The FDA-approved anticancer drug set is available from the Developmental Therapeutics Program at https://dtp.cancer.gov/organization/dscb/obtaining/available plates.htm. […] The stock solutions were prepared in dimethyl sulfoxide (DMSO, Sigma-Aldrich, St. Louis, MO, cat. D2650), except for the platinum compounds which were prepared in saline (Quality Biological, Gaithersburg, MD, cat. 114-055-101), at 800-fold the tested concentration and stored at -70 degrees C prior to their use. All drugs and investigational agents were tested over a range starting from a high concentration at or near the clinical Cmax and decreasing in half-log increments. If the clinical Cmax for an agent had not been determined, the highest concentration tested was 10 microM (Table 1).
Cell Culture. All cells were maintained in an incubator at 37 degrees C and 5% CO2 with 95% humidity. The PDC lines were cultured according to standard operating procedures established by the NCI PDMR (https://pdmr.cancer.gov). Briefly, all PDCs were thawed and cultured in Matrigel-coated flasks prepared with a working solution of 1X Ham's F-12 nutrient mix, without supplementation (Invitrogen, Waltham, MA, cat. 11765054), 100 U/mL penicillin-streptomycin (Invitrogen, cat. 15140122), and 2.5% Matrigel (Corning Inc., Corning, NY, cat. 354248) for the first three passages. All PDCs were cultured in complete DMEM/F-12 media containing advanced DMEM/F-12 (Invitrogen, cat. 12634028), 4.9% defined fetal bovine serum, heat inactivated (HyClone Laboratories Inc., Logan, UT, cat. SH30070.03HI), 389 ng/mL hydrocortisone (Sigma-Aldrich, cat. H4001), 9.7 ng/mL human EGF recombinant protein (Invitrogen, cat. PHG0313), 23.4 microg/mL adenine (Sigma-Aldrich, cat. A2786), 97.3 U/mL penicillin-streptomycin (Invitrogen, cat. 15140122), 1.9 mM L-glutamine (Invitrogen, cat. 25030081), and 9.7 microM Y-27632 dihydrochloride (Tocris Bioscience, Bristol, United Kingdom, cat. 1254). The PDCs were cultured in complete DMEM/F12 media without 10 microM Y-27632 dihydrochloride for at least two passages prior to the screen. The established cell lines NCI-H1341 and […] were cultured in DMEM/F-12, HEPES (Invitrogen, cat. 11330032), 5% defined fetal bovine serum (HyClone Laboratories Inc., cat. SH30070.03), ITS premix universal culture supplement [insulin (5 microg/mL), transferrin (5 microg/mL), and selenious acid (5 ng/mL)] […]

Values joined by “and” are separate entries in the source; they are usually repeats but may differ in a detail not shown here. Equal values may be shown once.
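Note: spheroids exposed to compounds for seven days.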

As usually defined, the viability, T/C is the result in the treated group divided by that in the control group, in per cent. Broadly, the IC50 is the concentration that inhibits the measured activity by half. As for `Cn1ncnc1C1c2n[nH]c(=O)c3cc(F)cc(c23)NC1c1ccc(F)cc1` (stereo not drawn), the IC50 was more than 100 nM. Also, under “compound 0.000316 µM”, the viability, T/C was 96.9% and 103% and 101%. Further, the viability, T/C (compound 0.001 µM) was 88.9% and 93.1% and 107%. Where the note is “compound 0.00316 µM”, the viability, T/C is 90.6% and 91.2% and 108%. Moreover, the viability, T/C (compound 0.01 µM) was 88.6% and 93.7% and 89%. The viability, T/C (compound 0.0316 µM) was 79.9% and 75.4% and 87.3%. Moreover, under “compound 0.1 µM”, the viability, T/C is 58% and 57% and 53.9%.

On to `NS(=O)(=O)OCC1CC(n2ccc3c(NC4CCc5ccccc54)ncnc32)CC1O` (stereo not drawn), for which the IC50 was 88.4 nM and 90.3 nM and 93 nM. In addition, under “compound 0.0316 µM”, the viability, T/C was 87% and 90.8% and 96.4%. Besides, the viability, T/C (compound 0.1 µM) is 45.5% and 46.1% and 46.9%. Also, for the setting “compound 0.316 µM”, the viability, T/C is 13.6% and 12.9% and 16%. The viability, T/C (compound 1 µM) is 6.2% and 6.25% and 7.3%. Moreover, under “compound 3.16 µM”, the viability, T/C was 5.6% and 5% and 5.76%. For the same compound, the viability, T/C (compound 10 µM) is 4.67% and 3.65% and 5.16%.

Regarding `Nc1ccccc1NC(=O)c1ccc(CNC(=O)OCc2cccnc2)cc1`, the IC50 was 920 nM and 758 nM and 747 nM. Further, the viability, T/C (compound 0.0316 µM) was 79.7% and 97% and 82.8%. Also, under “compound 0.1 µM”, the viability, T/C is 86.1% and 81.5% and 74.1%. Further, the viability, T/C (compound 0.316 µM) is 67.5% and 63.9% and 58.3%. Further, for the setting “compound 1 µM”, the viability, T/C was 48.1% (2×) and 46.7%. In addition, the viability, T/C (compound 3.16 µM) is 25.6% and 24.4% and 32.2%. Also, the viability, T/C (compound 10 µM) is 10.4% and 10.3% (2×).

Turning to `Nc1ccn(C2OC(CO)C(O)C2(F)F)c(=O)n1` (stereo not drawn), the IC50 is less than 31.6 nM. Besides, the viability, T/C (compound 0.0316 µM) is 3% and 2.24% and 2.66%. For the same compound, the viability, T/C (compound 0.1 µM) was 3.22% and 2.41% and 2.65%. Moreover, the viability, T/C (compound 0.316 µM) was 3.38% and 3.96% and 3.68%. For the same compound, the viability, T/C (compound 1 µM) is 3.04% and 4.06% and 3.38%. Moreover, under “compound 3.16 µM”, the viability, T/C was 3.46% and 3.77% and 3.42%. For the same compound, the viability, T/C (compound 10 µM) was 3.08% and 3.9% and 2.46%.

`Nc1ncn(C2CC(O)C(CO)O2)c(=O)n1` (stereo not drawn): the IC50 is 670 nM and 776 nM and 697 nM. The viability, T/C (compound 0.00316 µM) is 90.1% and 103% and 107%. Moreover, where the note is “compound 0.01 µM”, the viability, T/C was 89.7% and 93.7% and 117%. Where the note is “compound 0.0316 µM”, the viability, T/C is 98.7% and 97.9% and 108%. The viability, T/C (compound 0.1 µM) was 82.1% and 86% and 107%. Also, the viability, T/C (compound 0.316 µM) was 65.7% and 74.5% and 72%. Also, the viability, T/C (compound 1 µM) was 41.9% and 42.8% and 39.9%.

For the compound `Nc1ncn(C2CC(O)C(CO)S2)c(=O)n1` (stereo not drawn), the IC50 is 129 nM and 160 nM and 239 nM. The viability, T/C (compound 0.000949 µM) was 109% and 103% and 93%. In addition, the viability, T/C (compound 0.003 µM) was 93.6% and 108% and 103%. For the same compound, where the note is “compound 0.00949 µM”, the viability, T/C was 96.9% and 120% and 104%. In addition, the viability, T/C (compound 0.03 µM) was 89.1% and 99.3% and 116%. Under “compound 0.0949 µM”, the viability, T/C is 56.2% and 61.2% and 75.9%. The viability, T/C (compound 0.3 µM) is 31.1% and 37% and 43.6%.

In the case of `O=C(C=Cc1cccc(S(=O)(=O)Nc2ccccc2)c1)NO`, the IC50 is 725 nM and 670 nM and 991 nM. Besides, for the setting “compound 0.0316 µM”, the viability, T/C was 90.3% and 90% and 85.2%. Where the note is “compound 0.1 µM”, the viability, T/C was 86.3% and 84.5% and 83.5%. Where the note is “compound 0.316 µM”, the viability, T/C was 59.8% and 62.8% and 69.6%. Besides, the viability, T/C (compound 1 µM) was 45.6% and 39% and 44.7%. The viability, T/C (compound 3.16 µM) was 26.5% and 27.6% and 33.8%. Also, the viability, T/C (compound 10 µM) is 10.4% and 6.72% and 10.9%.

As to `O=C(C=Cn1cnc(-c2cc(C(F)(F)F)cc(C(F)(F)F)c2)n1)NNc1cnccn1`, the IC50 is 75.3 nM and 68.3 nM and 67.1 nM. Further, where the note is “compound 0.00949 µM”, the viability, T/C is 95.6% and 113% and 96.3%. Moreover, the viability, T/C (compound 0.03 µM) was 100% and 113% and 117%. The viability, T/C (compound 0.0949 µM) was 38% and 25% and 25.8%. Also, the viability, T/C (compound 0.3 µM) was 5.56% and 4.15% and 4.46%. Besides, the viability, T/C (compound 0.949 µM) was 2.2% and 1.47% and 2.93%. In addition, the viability, T/C (compound 3 µM) was 1.21% and 0.91% and 1.13%.

Take `O=C(c1cc(Cc2n[nH]c(=O)c3ccccc23)ccc1F)N1CCN(C(=O)C2CC2)CC1`: the half-maximal inhibitory concentration (IC50) is 8010 nM and 5700 nM and 6980 nM. Further, the viability, T/C (compound 0.0316 µM) is 101% and 131% and 106%. Moreover, where the note is “compound 0.1 µM”, the viability, T/C was 109% and 125% and 105%. Also, where the note is “compound 0.316 µM”, the viability, T/C was 133% and 134% and 148%. Moreover, the viability, T/C (compound 1 µM) was 141% and 121% and 151%. In addition, the viability, T/C (compound 3.16 µM) is 113% and 81.3% and 93.8%. For the same compound, the viability, T/C (compound 10 µM) was 34.5% and 20.2% and 30.2%.

Values taken from PubChem BioAssay AID1919006 (Molecular Pharmacology Branch, DTP, NCI, 2023).
